Measured values: PubChem BioAssay AID1259407 (Chemical Carcinogenesis Research Information System (CCRIS), 2018)
Activity calls are given as the source filed them. The rule behind the calls is not given here.

System: CCRIS mutagenicity, Ames/micronucleus/aberration tests
Experiment: CCRIS mutagenicity studies

For `Nc1ccc(N)cc1`, the mutagenic call (Test System: AMES SALMONELLA TYPHIMURIUM, Strain/Indicator: TA2638, Metabolic Activation: NONE, Method: STANDARD PLATE) was “inactive; negative”, the mutagenic call (Test System: AMES SALMONELLA TYPHIMURIUM, Strain/Indicator: YG1024, Metabolic Activation: PLANT (PERSEA AMERICANA) S-117, Method: STANDARD PLATE) was “inactive; negative” and the mutagenic call (Test System: AMES SALMONELLA TYPHIMURIUM, Strain/Indicator: YG1024, Metabolic Activation: PLANT (ZEA MAYS) S-9, Method: STANDARD PLATE) was “inactive; negative”. The mutagenic call (Test System: AMES SALMONELLA TYPHIMURIUM, Strain/Indicator: YG1029, Metabolic Activation: PLANT (PERSEA AMERICANA) S-117, Method: STANDARD PLATE) was “inactive; negative”, the mutagenic call (Test System: AMES SALMONELLA TYPHIMURIUM, Strain/Indicator: YG1029, Metabolic Activation: PLANT (ZEA MAYS) S-9, Method: STANDARD PLATE) was “inactive; negative” and the mutagenic call (Test System: Ames Salmonella typhimurium, Strain/Indicator: TA98, Metabolic Activation: None, Method: Standard plate) was “inactive; negative”. The mutagenic call (Test System: Ames Salmonella typhimurium, Strain/Indicator: TA98, Metabolic Activation: Rat, Liver, S-9, Aroclor 1254 (10%), Method: Preincubation) was “active; positive”, the mutagenic call (Test System: Ames Salmonella typhimurium, Strain/Indicator: TA98, Metabolic Activation: Rat, Liver, S-9, Aroclor 1254 (10%), Method: Standard plate) was “active; positive” and the mutagenic call (Test System: Ames Salmonella typhimurium, Strain/Indicator: TA100, Metabolic Activation: None, Method: Preincubation) was “inactive; negative”. The mutagenic call (Test System: Ames Salmonella typhimurium, Strain/Indicator: TA100, Metabolic Activation: None, Method: Standard plate) was “inactive; negative”, the mutagenic call (Test System: Ames Salmonella typhimurium, Strain/Indicator: TA100, Metabolic Activation: Rat, Liver, S-9, Aroclor 1254 (10%), Method: Preincubation) was “inactive; negative” and the mutagenic call (Test System: Ames Salmonella typhimurium, Strain/Indicator: TA100, Metabolic Activation: Rat, Liver, S-9, Aroclor 1254 (10%), Method: Standard plate) was “inactive; negative”. For the same compound, the mutagenic call (Test System: Ames Salmonella typhimurium, Strain/Indicator: TA102, Metabolic Activation: None, Method: Preincubation) was “inactive; negative”, the mutagenic call (Test System: Ames Salmonella typhimurium, Strain/Indicator: TA102, Metabolic Activation: None, Method: Standard plate) was “inactive; negative” and the mutagenic call (Test System: Ames Salmonella typhimurium, Strain/Indicator: TA102, Metabolic Activation: Rat, Liver, S9, Aroclor 1254, Method: Preincubation) was “inactive; negative”. The mutagenic call (Test System: Ames Salmonella typhimurium, Strain/Indicator: TA102, Metabolic Activation: Rat, Liver, S-9, Aroclor 1254 (10%), Method: Preincubation) was “inactive; negative”, the mutagenic call (Test System: Ames Salmonella typhimurium, Strain/Indicator: TA102, Metabolic Activation: Rat, Liver, S-9, Aroclor 1254 (10%), Method: Standard plate) was “inactive; negative” and the mutagenic call (Test System: Ames Salmonella typhimurium, Strain/Indicator: TA104, Metabolic Activation: None, Method: Preincubation) was “inactive; negative”. The mutagenic call (Test System: Ames Salmonella typhimurium, Strain/Indicator: TA104, Metabolic Activation: Rat, Liver, S9, Aroclor 1254, Method: Preincubation) was “inactive; negative”, the mutagenic call (Test System: Ames Salmonella typhimurium, Strain/Indicator: TA1535, Metabolic Activation: None, Method: Preincubation) was “inactive; negative” and the mutagenic call (Test System: Ames Salmonella typhimurium, Strain/Indicator: TA1535, Metabolic Activation: None, Method: Standard plate) was “inactive; negative”. The mutagenic call (Test System: Ames Salmonella typhimurium, Strain/Indicator: TA1535, Metabolic Activation: Rat, Liver, S-9, Aroclor 1254 (10%), Method: Preincubation) was “inactive; negative”, the mutagenic call (Test System: Ames Salmonella typhimurium, Strain/Indicator: TA1535, Metabolic Activation: Rat, Liver, S-9, Aroclor 1254 (10%), Method: Standard plate) was “inactive; negative” and the mutagenic call (Test System: Ames Salmonella typhimurium, Strain/Indicator: TA1537, Metabolic Activation: None, Method: Preincubation) was “inactive; negative”. For the same compound, the mutagenic call (Test System: Ames Salmonella typhimurium, Strain/Indicator: TA 1537, Metabolic Activation: None, Method: Standard plate) was “inactive; negative”, the mutagenic call (Test System: Ames Salmonella typhimurium, Strain/Indicator: TA1537, Metabolic Activation: Rat, Liver, S-9, Aroclor 1254 (10%), Method: Preincubation) was “inactive; negative” and the mutagenic call (Test System: Ames Salmonella typhimurium, Strain/Indicator: TA1537, Metabolic Activation: Rat, Liver, S-9, Aroclor 1254 (10%), Method: Standard plate) was “inactive; negative”. The mutagenic call (Test System: CHINESE HAMSTER OVARY, Strain/Indicator: CHO-K1-BH4 (HGPRT)/6-THIOGUANINE, Metabolic Activation: NONE) was “inactive; negative”, the mutagenic call (Test System: CHINESE HAMSTER OVARY, Strain/Indicator: CHO-K1-BH4 (HGPRT)/6-THIOGUANINE, Metabolic Activation: S-9) was “inactive; negative” and the mutagenic call (Test System: E. COLI, Strain/Indicator: WP2 (PKM101), Metabolic Activation: NONE, Method: STANDARD PLATE) was “inactive; negative”. For the same compound, the mutagenic call (Test System: E. COLI, Strain/Indicator: WP2 UVRA (PKM101), Metabolic Activation: NONE, Method: STANDARD PLATE) was “inactive; negative”, the mutagenic call (Test System: E.COLI, Strain/Indicator: WP2UVRA, Metabolic Activation: RAT LIVER S-9, PHENOBARBITAL AND BETA-NAPHTHOFLAVONE, Method: PREINCUBATION) was “inactive; negative” and the mutagenic call (Test System: MOUSE LYMPHOMA, Strain/Indicator: L5178Y (TK+/TK-), Metabolic Activation: NONE, Method: SUSPENSION/PLATE) was “active; positive”. The mutagenic call (Test System: MOUSE LYMPHOMA, Strain/Indicator: L5178Y (TK+/TK-), Metabolic Activation: RAT, LIVER, S-9, AROCLOR 1254, Method: SUSPENSION/PLATE) was “active; positive”, the mutagenic call (Test System: Mouse lymphoma, Strain/Indicator: L5178Y (TK+/TK-), Metabolic Activation: None, Method: Suspension/plate) was “inactive; negative” and the mutagenic call (Test System: Mouse lymphoma, Strain/Indicator: L5178Y (TK+/TK-), Metabolic Activation: Rat, Liver, S-9, Aroclor 1254, Method: Suspension/plate) was “inactive; negative”.
